Assay results taken from patent US10239890B2, “Broad spectrum beta-lactamase inhibitors” (Gladius Pharmaceuticals Corporation, priority 2007, dated 2019).

Legend:
[1] = molecular target: T1, beta-lactamase from Enterobacter cloacae (Enterobacter cloacae, UniProt P05364); test: Time dependent inhibition of beta-lactamase, with dialysis to test for return of activity; assay type: biochemical; settings: 10 mL 0.1 units/mL beta-lactamase with and without 500 microM inhibitor, dialysed against 1 L 0.1 M sodium phosphate buffer (pH 7.0) with one exchange
T1 construct: purchased Sigma-Aldrich, St. Louis, Mo

[2] = molecular target: T1, beta-lactamase from Enterobacter cloacae; test: Assay (I) for beta-lactamase activity (Cefesone hydrolysis, absorbance at 486 nm), product inhibition; assay type: biochemical; settings: Cefesone substrate
Description: A chromogenic cephalosporin, Cefesone, is synthesized and isolated as described by Sutton et al. and used to monitor p-lactamase activity. A typical assay monitors the hydrolysis of Cefesone via the formation of a species which absorbs at 486 nm (molar absorptivity constant 16,000). Absorption is monitored as a function of time in 0.1 M, pH 7.0 sodium phosphate, 0.2 mM Cefesone and 4 volume percent DMSO cosolvent at 30° C. using a Beckman DU-40 spectrophotometer having a circulating water bath attached to the cuvette holder. The assay is initiated by addition and mixing of an appropriate amount of beta-lactamase.
The beta-lactamase assay using enzyme fro Enterobacter cloacae (Sigma-Aldrich, St. Louis, Mo.) was carried out as in Example 1 (assay I) above with compound 2. After the initial rate was determined the reaction was allowed to continue for two hours. Theoretical maximal absorbance at 486 nm is approximately 1.6 while the observed final absorbance was consistently 0.26.
where E is enzyme, S is substrate, P is product, ES is the enzyme-substrate complex, EP is the enzyme product complex, and k1, k−1, k2, and k−2 are rate constants and kcat is the catalytic rate constant. In the case of product inhibition k−2 is large with respect to k2, so as enzyme product accumulates, more enzyme is tied up in the enzyme-product complex and is unavailable for catalysis.

T1 sequence (P05364 21-381): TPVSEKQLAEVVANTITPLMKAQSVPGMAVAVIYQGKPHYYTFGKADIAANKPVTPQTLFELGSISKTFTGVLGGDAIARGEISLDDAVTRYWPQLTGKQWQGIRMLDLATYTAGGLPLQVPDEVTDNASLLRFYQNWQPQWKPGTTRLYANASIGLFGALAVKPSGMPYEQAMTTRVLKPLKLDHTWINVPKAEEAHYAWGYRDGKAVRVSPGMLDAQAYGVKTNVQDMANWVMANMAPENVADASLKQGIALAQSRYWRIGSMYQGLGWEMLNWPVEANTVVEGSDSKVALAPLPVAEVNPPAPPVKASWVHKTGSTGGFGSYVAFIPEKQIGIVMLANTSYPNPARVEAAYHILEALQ

| Structure (SMILES) | return of beta-lactamase activity after dialysis [1] | observed final absorbance at 486 nm ([2]; reaction continued for two hours after the initial rate, theoretical maximal absorbance approximately 1.6) | type of inhibition inferred from final absorbance ([2]; reaction continued for two hours) |
| --- | --- | --- | --- |
| O=C(Cc1ccccc1)NC1C(=O)N2C(C(=O)O)=C(/C=C/c3ccc(CBr)cc3)CSC12 (stereo not shown) [compound 4, 3-(1-bromomethyl-4-vinylbenzene)-7-(2-phenylacetamido)-3-Cephem-4-carboxylic acid] | no return of activity |  |  |
| O=C(Cc1ccccc1)NC1C(=O)N2C(C(=O)O)=C(/C=C/C3CC3)CSC12 (stereo not shown) [compound 2, 3-vinylcyclopropane-7-(2-phenylacetamido)-3-Cephem-4-carboxylic acid] | no return of activity | 0.26 | consistent with product inhibition |
